From patent US20090118375A1, “Optically active phthalamides” (priority 2004, published 2009)

Assays:
[1] = system: Musca domestica; experiment: Housefly assay (Musca domestica); type: in vivo; conditions: 100 ppm, adult flies
Description: (§1) 10 mg active compound are dissolve in 0.5 ml dimethyl sulphoxide. Serial dilutions are made to obtain the desired rates.
Prior to the assay, a piece of kitchen sponge (ca. Ø 1.5 cm) is soaked with 0.8 ml of sugar solution and 0.2 ml of aqueous compound dilution and is placed into a container (4×4×2 cm). 10 adult Musca domestica flies (WHO/N strain) are anaesthetized by CO2 and also placed into the container. The container is closed with a perforated lid. […]
100% efficacy=all flies are killed 0% efficacy=no flies are killed

[2] = system: Boophilus microplus (SP-resistant Parkhurst strain); experiment: Boophilus microplus test (INJ), resistant cattle tick, injection method; type: in vivo; conditions: concentration of active compound 20 μM, injection into abdomen of adult satiated females
Description: Test with Resistant Monoxenic Cattle Tick/SP-Resistant Parkhurst Strain Injection Method
Boophilus microplus (INJ)
10 mg active compound are dissolve in 0.5 ml Dimethylsulfoxid. Serial dilutions are made to obtain the desired rates.
The test is carried out in 5 replications. 1 μl of the solutions is injected into the abdomen, and the animals are transferred to dishes and kept in a climate-controlled room. After 7 days, activity is checked by examination for deposition of fertile eggs. Eggs whose fertility is not externally visible are stored in glass tubes in a controlled-environment cabinet until the larvae have hatched after ca. 24 days. An activity of 100% denotes that none of the ticks has laid fertile eggs.

[3] = system: Plutella xylostella; experiment: Plutella test; type: in vivo; conditions: 20 ppm, cabbage leaves dipped
Description: (§2) To produce a suitable preparation of active compound, 1 part by weight of active compound is mixed with the stated amounts of solvent and emulsifier, and the concentrate is diluted with emulsifier-containing water to the desired concentration.
Cabbage leaves (Brassica oleracea) are treated by being dipped into the preparation of active compound of the desired concentration and are populated with caterpillars of the diamondback moth (Plutella xylostella) while the leaves are still moist.
(§3) After the desired period of time, the kill in % is determined. 100% means that all caterpillars have been killed; 0% means that none of the caterpillars have been killed.

[4] = system: Lucilia cuprina 1st instar larvae; experiment: Blowfly larval assay (Lucilia cuprina); type: in vivo; conditions: 100 ppm
Description: as §1
Approximately 20 Lucilia cuprina 1st instar larvae are transferred into a test tube containing 1 cm^3 of minced horse meat and 0.5 ml aqueous dilution of test compound. After 48 hrs percentage of larval mortality are recorded.
100% efficacy=all larvae are killed 0% efficacy=normally developed larvae after 48 hrs

[5] = log P by HPLC on reversed-phase column (EEC Directive 79/831 Annex V.A8); type: physicochemical; conditions: reversed-phase C18 HPLC column, pH 2.3, 43° C.
Description: The log P values given in the preparation examples and tables above are determined in accordance with EEC Directive 79/831 Annex V.A8 by HPLC (High Performance Liquid Chromatography) on a reversed-phase column (C 18). Temperature: 43° C.
In the acidic range, determination is carried out at pH 2.3 using the mobile phases 0.1% aqueous phosphoric acid and acetonitrile; linear gradient from 10% acetonitrile to 90% acetonitrile (in the tables marked with a)).
Calibration is carried out using unbranched alkan-2-ones (of 3 to 16 carbon atoms) with known lop P values (determination of the log P values by the retention times using linear interpolation between two successive alkanones).

[6] = system: Myzus persicae; experiment: Myzus test (spray application); type: in vivo; conditions: topical, 120 h, spray on Chinese cabbage leaves, after 5 d, read-out: Kill rate in % after 5 d
Description: Myzus Test (Spray Application)
as §2
Chinese cabbage leaves (Brassica pekinensis), which are infested by the green peach aphid (Myzus persicae), are treated by being sprayed with the preparation of the active compound of the desired concentration.
(§4) After the specified period of time, the mortality in % is determined. 100% means that all the […] have been killed; 0% means that none of the […] have been killed.

[7] = system: Spodoptera exigua; experiment: Spodoptera exigua test; type: in vivo; conditions: 168 h, cabbage leaves dipped, after 7 d, read-out: Kill rate in % after 7 d
Description: as §2
Cabbage leaves (Brassica oleracea) are treated by being dipped into the preparation of active compound of the desired concentration and are populated with caterpillars of the army worm (Spodoptera exigua) while the leaves are still moist.
as §3

[8] = system: Tetranychus urticae; experiment: Tetranychus test (OP-resistant/spray application); type: in vivo; conditions: 100 g/ha, spray on bean leaf slices
Description: Tetranychus test (OP-Resistant/Spray Application)
as §2
Bean leave slices (Phaseolus vulgaris), which are infested with all stages of the two-spotted spider mite (Tetranychus urticae), are treated by being sprayed with the preparation of the active compound of the desired concentration.
as §4

[9] = system: Spodoptera frugiperda; experiment: Spodoptera frugiperda test (spray application); type: in vivo; conditions: topical, 168 h, 20 g/ha, spray on maize leaf slices, after 7 d, read-out: Kill rate in % after 7 d
Description: Spodoptera frugiperda Test (Spray Application)
as §2
Maize leave slices (Zea mays) are treated by being sprayed with the preparation of the active compound of the desired concentration and are infested with caterpillars of the fall army worm (Spodoptera frugiperda) after the leaves have dried.
as §4

For CCSC[C@H](C)NC(=O)c1c(I)cccc1C(=O)Nc1ccc(C(F)(C(F)F)C(F)(F)F)cc1C (stereo partly drawn) [Compound 5], which “Kill rate in % after 4 d” value [1] is on record?
Its value is 100%.

What about the “Kill rate in % after 7 d” value [2] of the same molecule?
The value was 100%.

What about the melting point of the same molecule?
Its melting point is 105 °C.

Which results are given for CSC[C@H](C)NC(=O)c1c(I)cccc1C(=O)Nc1ccc(C(C(F)F)C(F)(F)F)cc1C (stereo partly drawn) [Compound 11]?
Kill rate in % after 7 d [3]: 100%; melting point: 184 °C

Which “Kill rate in % after 7 d” value [3] does the source give for CSC[C@H](C)NC(=O)c1c(Br)cccc1C(=O)Nc1ccc(C(F)(C(F)F)C(F)(F)F)cc1Br (stereo partly drawn) [Compound 67] here?
Its value is 100%.

What about the melting point of the same molecule?
The melting point was 138 to 142 °C.

Which “Kill rate in % after 2 d” value [4] does the source give for CCSC[C@H](C)NC(=O)c1c(I)cccc1C(=O)Nc1ccc(C(F)(C(F)(F)F)C(F)(F)Br)cc1C (stereo partly drawn) [Compound 1] here?
The value was 100%.

Which chromatographic logP [5] does the source give for Cc1cc(C(F)(C(F)F)C(F)(F)F)ccc1N (stereo not drawn) [4-(1-Difluoromethyl-1,2,2,2-tetrafluoro-ethyl)-2-methyl-phenylamine] here?
Its chromatographic logP is 2.74.

For CCS(=O)(=O)C[C@H](C)NC(=O)c1c(I)cccc1C(=O)Nc1ccc(C(C(F)F)C(F)(F)F)cc1F (stereo partly drawn) [Compound 37], which “Kill rate in % after 2 d” value [4] is on record?
Its value is 100%.

With CSC[C@H](C)N=C1OC(=O)c2cccc(I)c21 [4-Iodo-3-[(S)-1-methyl-2-methylsulfanyl-ethylimino]-3H-isobenzofuran-1-one] as the molecule, how does the chromatographic logP [5] read?
The chromatographic logP was 3.87.

For CCSC[C@H](C)NC(=O)c1c(I)cccc1C(=O)Nc1ccc(C(C(F)F)C(F)(F)F)cc1Cl (stereo partly drawn) [Compound 23], which “Kill rate in % after 7 d” value [2] is on record?
The value was 100%.

And the melting point?
Its melting point is 165 °C.

Which “Kill rate in % after 2 d” value [4] does the source give for CCS(=O)(=O)C[C@H](C)NC(=O)c1c(I)cccc1C(=O)Nc1ccc(C(F)(C(F)F)C(F)(F)F)cc1Cl (stereo partly drawn) [Compound 25] here?
The value was 90%.

For C[C@@H](CS(C)(=O)=O)NC(=O)c1c(I)cccc1C(=O)Nc1ccc(C(C(F)F)C(F)(F)F)cc1Br (stereo partly drawn) [Compound 31], which “Kill rate in % after 4 d” value [1] is on record?
Its value is 100%.

And the pest or weed control at 100 g/ha [6]?
Its pest or weed control at 100 g/ha is 100%.

For Cc1cc(C(C(F)F)C(F)(F)F)ccc1N (stereo not drawn) [4-(1-Difluoromethyl-2,2,2-trifluoro-ethyl)-2-methyl-phenylamine], which chromatographic logP [5] is on record?
The chromatographic logP was 2.02.

For CCS(=O)(=O)C[C@H](C)NC(=O)c1c(Cl)cccc1C(=O)Nc1ccc(C(C(F)F)C(F)(F)F)cc1Cl (stereo partly drawn) [Compound 56], which pest or weed control at 20 ppm [7] is on record?
Its pest or weed control at 20 ppm is 100%.

What about the melting point of the same molecule?
Its melting point is 116 °C.

What does the source list for Cc1cc(C(F)(C(F)F)C(F)(F)F)ccc1NC(=O)c1cccc(Cl)c1C(=O)N[C@@H](C)CS(C)(=O)=O (stereo partly drawn) [Compound 44]?
Kill rate in % after 7 d [3]: 100%; Kill rate in % after 5 d [8]: 80%

Which “Kill rate in % after 7 d” value [3] does the source give for CCSC[C@H](C)NC(=O)c1c(Br)cccc1C(=O)Nc1ccc(C(C(F)F)C(F)(F)F)cc1Cl (stereo partly drawn) [Compound 54] here?
The value was 100%.

What about the melting point of the same molecule?
The melting point was 100 °C.

Which results are given for CCS(=O)(=O)C[C@H](C)NC(=O)c1c(Br)cccc1C(=O)Nc1ccc(C(C(F)F)C(F)(F)F)cc1Cl (stereo partly drawn) [Compound 59]?
pest or weed control at 20 ppm [7]: 100%; melting point: 121 °C

Which results are given for CCSC[C@H](C)NC(=O)c1c(I)cccc1C(=O)Nc1ccc(C(C(F)F)C(F)(F)F)cc1F (stereo partly drawn) [Compound 21]?
Kill rate in % after 4 d [1]: 100%; melting point: 144 °C

For CSC[C@H](C)NC(=O)c1c(Cl)cccc1C(=O)Nc1ccc(C(C(F)F)C(F)(F)F)cc1Cl (stereo partly drawn) [Compound 42], which “Kill rate in % after 5 d” value [8] is on record?
The value was 80%.

What does the source list for CCSC[C@H](C)NC(=O)c1c(I)cccc1C(=O)Nc1ccc(C(C(F)F)C(F)(F)F)cc1Br (stereo partly drawn) [Compound 24]?
Kill rate in % after 7 d [2]: 100%; melting point: 160 °C

With CCS(=O)(=O)C[C@H](C)NC(=O)c1c(I)cccc1C(=O)Nc1ccc(C(C(F)F)C(F)(F)F)cc1Br (stereo partly drawn) [Compound 35] as the molecule, how does the “Kill rate in % after 4 d” value [1] read?
The value was 100%.

What about the melting point of the same molecule?
The melting point was 122 °C.

What does the source list for CCS(=O)(=O)C[C@H](C)NC(=O)c1c(I)cccc1C(=O)Nc1ccc(C(F)(C(F)F)C(F)(F)F)cc1Br (stereo partly drawn) [Compound 34]?
pest or weed control at 20 ppm [7]: 100%; melting point: 134 °C

What does the source list for CCSC[C@H](C)NC(=O)c1c(I)cccc1C(=O)Nc1ccc(C(F)(C(F)F)C(F)(F)F)cc1F (stereo partly drawn) [Compound 8]?
pest or weed control at 20 ppm [7]: 100%; melting point: 138 to 141 °C

For C[C@@H](CS(C)(=O)=O)NC(=O)c1c(I)cccc1C(=O)Nc1ccc(C(F)(C(F)F)C(F)(F)F)cc1F (stereo partly drawn) [Compound 32], which “Kill rate in % after 4 d” value [1] is on record?
Its value is 100%.

What about the “Kill rate in % after 2 d” value [4] of the same molecule?
Its value is 100%.

What does the source list for C[C@@H](CS(C)(=O)=O)NC(=O)c1c(I)cccc1C(=O)Nc1ccc(C(F)(C(F)F)C(F)(F)F)cc1Cl (stereo partly drawn) [Compound 27]?
pest or weed control at 20 ppm [7]: 100%; melting point: 184 °C

Which results are given for C[C@@H](CS(C)(=O)=O)NC(=O)c1c(I)cccc1C(=O)Nc1ccc(C(C(F)F)C(F)(F)F)cc1Cl (stereo partly drawn) [Compound 28]?
Kill rate in % after 4 d [1]: 100%; melting point: 116 to 120 °C

For CSC[C@H](C)NC(=O)c1c(Cl)cccc1C(=O)Nc1ccc(C(F)(C(F)(F)F)C(F)(F)Br)cc1C (stereo partly drawn) [Compound 38], which “Kill rate in % after 7 d” value [3] is on record?
The value was 100%.

And the melting point?
The melting point was 184 to 186 °C.

For CCS(=O)(=O)C[C@H](C)NC(=O)c1c(I)cccc1C(=O)Nc1ccc(C(F)(C(F)F)C(F)(F)F)cc1F (stereo partly drawn) [Compound 36], which “Kill rate in % after 2 d” value [4] is on record?
Its value is 100%.

Which results are given for CCS(=O)(=O)C[C@H](C)NC(=O)c1c(Br)cccc1C(=O)Nc1ccc(C(F)(C(F)F)C(F)(F)F)cc1Br (stereo partly drawn) [Compound 69]?
pest or weed control at 20 g/ha [9]: 100%; Kill rate in % after 2 d [4]: 100%

Which “Kill rate in % after 4 d” value [1] does the source give for C[C@@H](CS(C)(=O)=O)NC(=O)c1c(I)cccc1C(=O)Nc1ccc(C(C(F)F)C(F)(F)F)cc1F (stereo partly drawn) [Compound 33] here?
Its value is 100%.

And the “Kill rate in % after 7 d” value [2]?
Its value is 100%.

What about the melting point of the same molecule?
Its melting point is 144 to 147 °C.

With Cc1cc(C(F)(C(F)F)C(F)(F)F)ccc1NC(=O)c1cccc(I)c1C(=O)N[C@@H](C)CS(C)(=O)=O (stereo partly drawn) [Compound 18] as the molecule, how does the “Kill rate in % after 7 d” value [3] read?
Its value is 100%.

What about the melting point of the same molecule?
The melting point was 124 °C.

Which “Kill rate in % after 7 d” value [2] does the source give for CCSC[C@H](C)NC(=O)c1c(I)cccc1C(=O)Nc1ccc(C(C(F)F)C(F)(F)F)cc1C (stereo partly drawn) [Compound 4] here?
Its value is 100%.

What about the “Kill rate in % after 2 d” value [4] of the same molecule?
The value was 100%.
